This is an account of results in article PMC4585835 (Scientific Reports, 2015).

Like-named read-outs stand apart in the source and are kept apart here. Where a SMILES comes first, the peptide text is derived from it. [ ]: non-standard residue; d: D form. The star is where a group is joined. Stearoyl = CCCCCCCCCCCCCCCCCC(=O)*

One may read the AUC(0-inf) as total exposure, with the tail of the curve extrapolated. A high value points to more exposure. What is called Cmax is the peak of the concentration-time curve. As a reminder, the clearance is the volume of plasma or blood freed of the substance per unit of time. What is called AUC(0-t) is the area under the concentration-time curve up to a stated or last time point. Usually half-life stands for the time needed for the level to fall by half in the phase considered.

Data set [1] in a line: Pharmacokinetics in rats, i.v. The class given is in vivo. The settings on record: rat. How it is done: SD Rats were randomly divided into three groups (n = 5). […] All blood samples were immediately centrifuged at 5000 rpm for 5 min at room temperature, and the plasma obtained was stored at −20 °C before analysis. To the rat plasma (100 μL) was added 10 μL internal standard (80 ~ 100 ng/ml Carbamazepine), followed by mixing with 200 μL methanol with vortexing for 1 min. At this stage, certain amounts of proteins may precipitate out, thus this mixture was centrifuged at 12,000 rpm for 5 min at room temperature to achieve complete separation. The 20 μl supernatant was injected into a HPLC (Symbiosis, Spark, Holland; column: 50 mm × 2.1 mm, 5 μm, Agilent Eclipse Plus) –MS/MS system (ABI 4000 Q-Trap triple quadrupole mass spectrometer) equipped with electrospray ionization (ESI) source in the positive ion mode (Foster City, USA). The HPLC elution gradient was as follows: 0–0.5 min, 5–5% (B); 0.5–3 min, 5–95% (B); 3–4 min, 95–95% (B); 4–4.06 min, 95–5% (B); 4.06–6 min, 5–5% (B); the flow-rate was 0.4 ml/min; A was 0.1% formic acid/Waterl, B was 0.1% formic acid/methanol. The MS parameters were: CUR10Psi; Ion Spray Voltage (IS) 5500v; Collision activated dissociation (CAD) High, Gas1 = 50 psi, Gas2 = 50 psi, TEM = 500 °C.
All three peptides remained stable in plasma during three freeze/thaw cycles, at room temperature for at least 2 h. The supernatant of plasma samples were also found to be stable for at least 24 h at 10 °C in the autosampler.
The statistical significance of the difference among pharmacokinetic parameters was determined using the mean comparison Student’s t-test, and the resulting P values were lower than 0.05, which is considered to be statistically significant.

Data set [2] has as its target T1, human serum albumin (HSA) (Homo sapiens, UniProt P02768).
T1 construct: purchased Calbiochem (Merck, Germany)
As to the kind of experiment: Surface plasmon resonance on surface-immobilized HSA. The class given is binding. The settings on record: HBS-EP buffer, 0.1-10 μM peptide. The protocol: Briefly, HSA was first immobilized on CM5 sensor chips using the standard amine coupling protocol provided by manufacturer. The carboxymethylated dextran surface was then activated by injecting 45 μL of the solution containing 0.2 M N-ethyl-N’-(3-dimethylaminopropyl) carbodiimide hydrochloride and 0.05 M N-hydroxy succinimide. Subsequently, HSA and the control antibody were dissolved in 10 mM Na-citrate solution (pH 5.0, 50 μg/ml) and then injected until the desired amount of HSA and control antibody were coupled (8000 RUs). At this point, a buffer with higher ionic strength (HBS-EP, 0.01 M Hepes, pH = 7.4, 0.15 M NaCl, 3 mM EDTA, 0.005% surfactant) was used to wash off the ligands bound non-covalently. Finally, the 1 M ethanolamine hydrochloride solution (pH 8.5) was employed to cap the free NHS esters present on the sensor surface. […] All samples were injected onto the surface of HSA and control antibody over 3 minutes at a flow rate of 30 μL/min, followed by a dissociation period of 15 min. The 2.5 μM sample was subject to this protocol twice. Sensorgrams were obtained for each peptide concentration, respectively.
(Surface plasmon resonance follows binding to a sensor surface in real time, without labels.)

The test system of a further data set is rat blood. Briefly: Coagulation time (CT) of rat blood. The class given is in vivo. How it is done: CT was obtained using the modified Dale’s method. […] Thirty min after administration, blood samples were taken from the rat vein under eye ball with glass capillaries (20 μL), which were broken after 10 s, followed by a coagulation check. The time between blood extraction and blood coagulation in each capillary was recorded as coagulation time (CT).

The mark [3] stands for this setting: SD, plasma, iv, 1 umol/kg, 1 μmol/kg i.v., n = 5.

T1 sequence (P02768 25-609): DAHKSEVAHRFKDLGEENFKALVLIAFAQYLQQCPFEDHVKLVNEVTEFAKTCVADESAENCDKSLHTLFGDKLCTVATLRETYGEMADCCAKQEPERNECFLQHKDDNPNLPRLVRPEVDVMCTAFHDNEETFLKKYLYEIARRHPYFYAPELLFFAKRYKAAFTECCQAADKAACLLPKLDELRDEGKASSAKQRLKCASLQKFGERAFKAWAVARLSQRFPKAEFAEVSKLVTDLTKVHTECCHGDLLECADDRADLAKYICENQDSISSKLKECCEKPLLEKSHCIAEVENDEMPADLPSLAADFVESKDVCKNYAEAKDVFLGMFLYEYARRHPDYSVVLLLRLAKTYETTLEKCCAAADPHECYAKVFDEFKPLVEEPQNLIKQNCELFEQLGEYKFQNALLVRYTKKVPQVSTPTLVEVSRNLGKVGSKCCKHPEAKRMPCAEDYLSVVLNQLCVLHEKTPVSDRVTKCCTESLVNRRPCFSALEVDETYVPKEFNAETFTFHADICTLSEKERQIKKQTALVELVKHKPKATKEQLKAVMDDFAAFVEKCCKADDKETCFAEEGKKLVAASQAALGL

As for `CCCCCCCCCCCCCCCCCC(=O)NCCCC[C@H](NC(=O)CNC(=O)[C@@H]1CCCN1C(=O)[C@H](CCCNC(=N)N)NC(=O)[C@@H]1CCCN1C(=O)[C@H](N)Cc1ccccc1)C(=O)NCC(=O)NCC(=O)N[C@@H](CCC(N)=O)C(=O)NCC(=O)N[C@@H](CC(=O)O)C(=O)N[C@@H](Cc1ccccc1)C(=O)N[C@@H](CCC(=O)O)C(=O)N1CCC[C@H]1C(=O)N[C@H](C(=O)N1CCC[C@H]1C(=O)N[C@@H](CCC(=O)O)C(=O)N[C@@H](CC(=O)O)C(=O)N[C@@H](C)C(=O)N[C@@H](Cc1ccc(O)cc1)C(=O)N[C@@H](CC(=O)O)C(=O)N[C@@H](CCC(=O)O)C(N)=O)[C@@H](C)CC` [Peptide S2] (H-[dF]PRPGK(Stearoyl)GGQGDFEPIPEDAYDE-NH2; N-terminus assumed), in data set [1] (setting [3]), the AUC(0-inf) is 26.5 µM·h, the Cmax is 10.1 ± 1.1 µM, the clearance came to 0.7 ± 0.1 mL/min/kg and the half-life is 3.54 ± 0.973 h. Further, in data set [1] (SD, plasma, iv, 1 umol/kg, 1 μmol/kg i.v., n = 5, read-out: AUC(0-t) (converted)), the AUC(0-t) was 22.9 µM·h. Moreover, the Vd in data set [1] (SD, plasma, iv, 1 umol/kg, 1 μmol/kg i.v., n = 5, read-out: Vss) stood at 0.146 ± 0.0155 L/kg. Also, in data set [1] (in vivo, iv, 1 umol/kg, 1 μmol/kg i.v., n = 5, read-out: MRT0-t (converted)), the MRT last was 3.29 h. Further, in data set [1], the “half-life, fold longer than hirulog-1” value worked out at 13.1 fold and the “half-life, fold longer than peptide 1” value is given as 14.7 fold. For the same compound, in data set [1] (1 μmol/kg i.v., n = 5), the “AUC(0-t)” value is 22.862 ± 3.463 µM·h and the “AUC(0-∞)” value amounted to 1590.6 ± 311.7 nmol·min/mL. The “binding to surface-immobilized HSA (SPR)” value in data set [2] is “weakly bind to HSA”. Also, in the data set on rat blood (1.0 mg/kg peptide S2), the “anticoagulant activity (CT) compared with references” value was “superior to the 8 mg/kg hirulog-1 and 200 IU/kg heparin”. Further, the “coagulation time (CT) of rat blood” value in the data set on rat blood (30 min after administration) was “significantly prolong”.
